{
  "source": "patent US20250002450A1",
  "about": "“CATIONIC STEROID COMPOUNDS, METHOD OF OBTAINING THEREOF, FORMULATIONS COMPRISING THEREOF AND THEIR USES” (UNIVERSIDADE DO PORTO, priority 2021, published 2025)",
  "key": {"[1]": {"tested_on": "E. coli 2252", "assay": "Checkerboard synergy with COL", "format": "cell-based, Escherichia coli", "procedure": "The combined effect of compound 1 and CTX for E. coli SA/2, VAN for E. faecalis B3/101, COL for E. coli 2252, erythromycin for E. coli ATCC 25922, and OXA for S. aureus 66/1 was evaluated by the checkerboard method. […] The interaction between compound 1 and erythromycin was assessed for E. coli ATCC 25922. Gram-negative bacteria are intrinsically resistant to erythromycin, a macrolide that inhibits protein synthesis, and cannot penetrate the outer membrane of Gram-negative bacteria, which is impermeable to hydrophobic antibiotics. Ascertain ceragenins have been previously described to be able to enhance the efficacy of such antibiotics, this possibility was investigated for compound 1 and a FICI of 0.6 was obtained."}, "[2]": {"tested_on": "yeasts and filamentous fungi, including dermatophytes", "assay": "Antifungal activity, whole strain panel", "format": "cell-based", "settings": "all microorganisms tested (Table 2)", "procedure": "The antifungal activity of compound 1 was evaluated for a wide range of fungal species, covering yeasts and filamentous fungi, including dermatophytes. […] This antimicrobial effect was fungicidal, with minimal lethal concentrations (MLC) being equal to, or one or two-fold higher than the respective MIC. Twenty-three fungal strains were used in this study, including reference strains and clinical isolates of yeasts and filamentous fungi. Yeast strains included reference strains (ATCC—American Type Culture Collection and CECT—Colección Española de Cultivos Tipo) and clinical isolates: C. albicans ATCC 10231, Candida krusei ATCC 6258, C. albicans H37, C. albicans FF172, C. albicans FF176, C. albicans DSY294, C. albicans DSY296, C. glabrata DSY562, C. glabrata DSY565 and Cryptococcus neoformans CECT 1078. […]\nAntifungal activity was evaluated by determining the MIC of compound 1 by the broth microdilution method, according to CLSI guidelines (reference documents M27-A3 for yeasts and M38-A2 for filamentous fungi). […] The minimal lethal concentration (MLC) was determined by spreading 20 μL of culture collected from wells showing no visible growth on SDA plates. The MLC was determined as the lowest concentration showing complete growth inhibition after 48 h at 35 degrees C., 48 h at 25 degrees C. […]"}, "[3]": {"tested_on": "C. albicans ATCC 10231", "assay": "Ergosterol binding assay", "format": "cell-based, Candida albicans", "settings": "400 μg/mL ergosterol", "procedure": "Ceragenins have been described to interact with the lipophilic environment of microbial membranes and ergosterol is the major sterol component of fungal plasma membrane, and the target of several antifungals. As such, in order to evaluate the ability of compound 1 to bind to membrane ergosterol of C. albicans ATCC 10231, MICs were determined in the absence and presence of exogenous ergosterol ([FIG. 10]). If the tested compound has the ability to perturb membrane integrity by binding to ergosterol, is expected that, in the presence of exogenous ergosterol, the compound binds to it, decreasing the amount of compound available to bind to membrane ergosterol, therefore increasing the MIC. Amphotericin B was used as a positive control for this assay and MICs obtained were 8 times higher in the presence of 400 μg/mL of exogenous ergosterol than in its absence (2 to 16 μg/mL, data not shown). […] The ability of compound 1 to bind to membrane ergosterol of C. albicans ATCC 10231, was evaluated by the ergosterol binding assay, as previously described. Briefly, MICs of compound 1 were determined by broth microdilution, as described above, in the absence and presence of ergosterol (Sigma-Aldrich, St. Louis, MO, USA) at a final concentration of 400 μg/mL. Ergosterol was prepared immediately before being added to the plates, by maceration and dissolution in DMSO. The formed emulsion was then homogenized, heated to increase solubility, and diluted in RPMI. Amphotericin B was used as positive control. Plates were incubated at 35° C. for 48 h and MICs were determined as described above. At least two independent assays were performed."}},
  "data": [
    {"smiles": "C[C@H](CCC(=O)NCCN)[C@H]1CC[C@H]2[C@@H]3CC[C@@H]4C[C@H](O)CC[C@]4(C)[C@H]3C[C@H](O)[C@]12C", "note": "[Compound 1, (R)—N-(2-aminoethyl)-4-((3R,5R,8R,9S,10S,12S,13R,14S,17R)-3,12-dihydroxy-10,13-dimethylhexadecahydro-1H-cyclopenta[a]phenanthren-17-yl) pentanamida]", "values": [
      {"measurement": "combined effect with COL (in words)", "setting": "[1]; checkerboard, E. coli 2252", "result": "No synergistic interactions"},
      {"measurement": "fractional inhibitory concentration index (FICI)", "setting": "[1]; with COL, E. coli 2252 (mcr-1)", "result": 0.6},
      {"measurement": "spectrum of antifungal activity (in words)", "setting": "[2]", "result": "active against all microorganisms tested"},
      {"measurement": "effect of exogenous ergosterol on MICs (in words)", "setting": "[3]", "result": "unaffected"}
    ]}
  ]
}
